The record followed here is ChEMBL document CHEMBL6109099, “Design, synthesis and biological evaluation of novel hydroxamic acid-derived histone deacetylase inhibitors bearing a 2-oxoindoline scaffold as potential antitumor agents” (Bioorg Med Chem, 2025).

Series [1] relates to SW-620. The series can be described thus: Induction of morphological changes in human SW620 cells assessed as cell clumping at 5 uM measured after 24 hrs. Format: functional, cell-based.
Series [2] deals with SW-620. The series can be described thus: Induction of apoptosis in human SW620 cells assessed as necrotic cells at 5 uM measured after 24 hrs by Annexin V-APC/propidium iodide staining based flow cytometry (reference value: 0.2 to 0.42%). It counts as functional.
Series [3] relates to SW-620. The series can be described thus: Induction of morphological changes in human SW620 cells assessed as altered membrane permeability at 5 uM measured after 24 hrs. Format: functional, cell-based.
The test system of series [4] is SW-620. The series can be described thus: Induction of morphological changes in human SW620 cells assessed as cell shrinkage at 5 uM measured after 24 hrs. Format: functional, cell-based.
Series [5] deals with SW-620. The series can be described thus: Induction of morphological changes in human SW620 cells assessed as tighter organelle packing at 5 uM measured after 24 hrs. Format: functional, cell-based.
The test system of series [6] is SW-620. The series can be described thus: Induction of morphological changes in human SW620 cells assessed as increase in granularity at 5 uM measured after 24 hrs. It counts as functional, cell-based.
Series [7] concerns SW-620. The series can be described thus: Induction of morphological changes in human SW620 cells assessed as reduction in cell size at 5 uM measured after 24 hrs. Format: functional, cell-based.
Series [8] deals with SW-620. The series can be described thus: Induction of morphological changes in human SW620 cells assessed as water extrusion at 5 uM measured after 24 hrs. It counts as functional, cell-based.
Series [9] has as its system SW-620. The series can be described thus: Cell cycle arrest in human SW620 cells assessed as accumulation of cells at G2/M-phase at 5 uM measured after 24 hrs by propidium iodide staining based flow cytometry (reference value: 27.55 to 31.23%). It counts as functional.
Series [10] relates to SW-620. The series can be described thus: Cell cycle arrest in human SW620 cells assessed as accumulation of cells at G0/G1-phase at 5 uM measured after 24 hrs by propidium iodide staining based flow cytometry (reference value: 52.39 to 55.88%). Format: functional.
Series [11] concerns SW-620. The series can be described thus: Induction of apoptosis in human SW620 cells assessed as early apoptotic cells at 5 uM measured after 24 hrs by Annexin V-APC/propidium iodide staining based flow cytometry (reference value: 7.13 to 9.13%). Format: functional.
For series [12], the system named is SW-620. The series can be described thus: Induction of morphological changes in human SW620 cells assessed as cell rounding at 5 uM measured after 24 hrs. It counts as functional, cell-based.
Series [13] concerns SW-620. The series can be described thus: Induction of morphological changes in human SW620 cells assessed as altered membrane fluidity at 5 uM measured after 24 hrs. It counts as functional, cell-based.
Series [14] deals with SW-620. The series can be described thus: Cell cycle arrest in human SW620 cells assessed as accumulation of cells at S-phase at 5 uM measured after 24 hrs by propidium iodide staining based flow cytometry (reference value: 16.38 to 16.91%). Format: functional.
The subject of series [15] is SW-620. The series can be described thus: Induction of apoptosis in human SW620 cells assessed as late apoptotic cells at 5 uM measured after 24 hrs by Annexin V-APC/propidium iodide staining based flow cytometry (reference value: 3.47 to 4.55%). Format: functional.
The test system of series [16] is SW-620. The series can be described thus: Induction of morphological changes in human SW620 cells assessed as cytoplasmic condensation at 5 uM measured after 24 hrs. It counts as functional, cell-based.
Series [17] can be described thus: Cytotoxicity against human MRC5 cells assessed as reduction in cell viability by SRB assay.
Series [18] concerns SW-620. The series can be described thus: Cytotoxicity against human SW620 cells assessed as reduction in cell viability by SRB assay. It counts as functional, cell-based.
Another series has as its target Histone deacetylase. The series can be described thus: Inhibition of HDAC in human HeLa cells nuclear extract. It counts as subcellular, Nucleus.
For a further series, the system named is HCT-116. The series can be described thus: Cytotoxicity against human HCT-116 cells assessed as reduction in cell viability by SRB assay. Format: functional, cell-based.
Series [19] deals with SW-620. The series can be described thus: Potency index, ratio of SAHA IC50 to test compound IC50 for cytotoxicity against human SW620 cells. It counts as functional.

Counter-ions that a name gives are not always drawn. The source made the active and inactive calls. No cut-off for these calls is given here.

On to `O=C(CCCCCCC(=O)Nc1ccccc1)NO` [VORINOSTAT], for which the outcome in the series with SW-620 [1], in the series with SW-620 [3], in the series with SW-620 [4], in the series on SW-620 [5], in the series on SW-620 [6] and in the series on SW-620 [7] was Active. The outcome in the series with SW-620 [8], with SW-620 [12], in the series on SW-620 [13] and with SW-620 [16] was Active. Also, the Activity in the series on SW-620 [2] was determined as 1.53%; with SW-620 [9] it was 37.58%; in the series with SW-620 [10] it was 41.58%; with SW-620 [11] it was 26.3%; in the series with SW-620 [14], 15.16%; with SW-620 [15], 24.3%.
With `O=C(/C=C/c1ccc(CN2C(=O)Cc3cc(F)ccc32)cc1)NO`, the IC50 is more than 100 µM in series [17], 14.2 µM with SW-620 [18], 5.012 µM at Histone deacetylase and 7.46 µM with HCT-116.
For `O=C(CCCCCCN1C(=O)Cc2cc(Br)ccc21)NO`, in that order: 30.1 µM, 12.3 µM, less than 0.001 µM and 9.96 µM.
For `O=C(/C=C/c1ccc(CN2C(=O)Cc3ccccc32)cc1)NO`, in that order: more than 100 µM, 7.36 µM, 2.316 µM and 5.72 µM.
For `O=C(CCCCCCN1C(=O)Cc2cc(Cl)ccc21)NO`, in that order: 23.1 µM, 4.72 µM, 0.007 µM and 5.67 µM.
For `O=C(/C=C/c1ccc(CN2C(=O)Cc3cc(Cl)ccc32)cc1)NO`, the IC50 in series [17] came to 66.4 µM; in the series on SW-620 [18], 7.08 µM; on Histone deacetylase it was 0.737 µM; in the series with HCT-116, 3.63 µM.
For `COc1ccc2c(c1)CC(=O)N2CCCCCCC(=O)NO`, in that order: 24.6 µM, 6.02 µM, 0.025 µM and 6.44 µM.
For `O=C(NO)c1ccc(CN2C(=O)Cc3cc(Cl)ccc32)cc1`, in that order: more than 100 µM, 6.26 µM, 0.491 µM and 3.5 µM.
For `O=C(NO)c1ccc(CN2C(=O)Cc3cc(F)ccc32)cc1`, in that order: more than 100 µM, 10.6 µM, 0.477 µM and 7.6 µM.
As for `COc1ccc2c(c1)CC(=O)N2Cc1ccc(/C=C/C(=O)NO)cc1`, the IC50 in [17] was more than 100 µM; in the series with SW-620 [18], 10.2 µM; on Histone deacetylase, 1.043 µM; in the series on HCT-116, 3.18 µM.
Turning to `O=C(CCCCCCN1C(=O)Cc2cc(F)ccc21)NO`, the IC50 in series [17] stood at 57.3 µM; in the series on SW-620 [18] it was 5.71 µM; at Histone deacetylase it was 0.047 µM; with HCT-116, 3.95 µM.
For `O=C(NO)c1ccc(CN2C(=O)Cc3cc(Br)ccc32)cc1`, in that order: 21.4 µM, 5.51 µM, 2.739 µM and 2.78 µM.
In the case of `COc1cccc2c1C(=O)c1c(O)c3c(c(O)c1C2=O)C[C@@](O)(C(=O)CO)C[C@@H]3O[C@H]1C[C@H](N)[C@H](O)[C@H](C)O1` [DOXORUBICIN HYDROCHLORIDE], the IC50 is 3.93 µM in [17], 0.59 µM in the series with SW-620 [18] and 0.19 µM in the series with HCT-116.
`O=C(NO)c1ccc(CN2C(=O)Cc3ccccc32)cc1`: the IC50 in series [17] is more than 100 µM; in the series on SW-620 [18], 8.18 µM; on Histone deacetylase, 0.477 µM; in the series with HCT-116, 7.22 µM.
In the case of `COc1ccc2c(c1)CC(=O)N2Cc1ccc(C(=O)NO)cc1`, the half-maximal inhibitory concentration (IC50) in [17] stood at 41.4 µM; with SW-620 [18] it was 8.9 µM; at Histone deacetylase, 2.735 µM; with HCT-116 it was 3.62 µM.
For `O=C(/C=C/c1ccc(CN2C(=O)Cc3cc(Br)ccc32)cc1)NO`, in that order: 48.7 µM, 5.21 µM, 0.698 µM and 3.19 µM.
With `O=C(CCCCCCN1C(=O)Cc2ccccc21)NO`, the outcome with SW-620 [1], with SW-620 [3], with SW-620 [4], in the series with SW-620 [5], in the series with SW-620 [6] and in the series on SW-620 [7] was Active. Moreover, the result in the series on SW-620 [8], with SW-620 [12], in the series on SW-620 [13] and in the series on SW-620 [16] was Active. Moreover, the Activity in the series on SW-620 [2] worked out at 1.85%; in the series on SW-620 [9] it was 47.54%; with SW-620 [10], 32.88%; in the series on SW-620 [11], 23.4%; in the series with SW-620 [14], 15.26%; in the series with SW-620 [15] it was 28.9%. Further, in the series on SW-620 [19], the “Ratio IC50” value is approximately 2.5. The IC50 was 17.6 µM in series [17], 1.81 µM with SW-620 [18], 0.015 µM on Histone deacetylase and 1.68 µM in the series with HCT-116.
